Assay type in all cases: cell-based
In assay [1] the test system is M. tuberculosis H37Ra. As to the kind of experiment: Resuscitation of 6 month old culture by phospholipids, CFU on 7H11 agar. The conditions noted are these: for CFU/ml: 4 μg/ml, 6 month old cells, 7H11 agar, 3 weeks. The protocol: M. tuberculosis H37Ra cultures were grown in 7H9 medium containing Tween 80 (0.05%) and ADC (albumin-dextrose-catalase) enrichment at 37° C. for various periods of time as standing batch cultures. Cultures of varying age up to one year were used for the resuscitation experiments. Resuscitation of dormant M. tuberculosis by phosphatidylserine was performed as follows. A 6 month old M. tuberculosis H37Ra culture was washed and resuspended in 7H9 medium followed by plating at different dilutions on 7H11 agar plates containing 4 μg/ml phosphatidylserine (derived from bovine brain, containing a mixture of two unknown fatty acyl groups, Sigma Chemical Co.) or phosphatidylserine dioleoyl. The plates were incubated at 37° C. for 3 weeks when the CFU was determined. Data represent average of duplicate samples.
To confirm that a phospholipid was responsible for activity, we first tested commercially available phosphatidyl-L-serine and a dioleoyl phosphatidyl-L-serine, both of which are precursor of phosphatidylethanolamine and phosphatidylcholine, for resuscitation activity for the 6 month old M. tuberculosis H37Ra cells. Both compounds had significant resuscitation activity over medium control as judged by colony forming units (CFU) assay. Phosphatidyl-L-serine and a dioleoyl phosphatidyl-L-serine at 4 μg/ml gave 1.2×10^7, 2×10^6 CFU/ml, respectively, whereas the medium control produced 3×10^4 CFU/ml.

For assay [2], the system named is M. tuberculosis H37Ra. The note with it: 7-month-old culture.
The subject of assay [3] is M. tuberculosis H37Ra. The note with it: 7-month-old culture. This is another data set of the same source.
The subject of assay [4] is M. tuberculosis H37Ra. The conditions noted are these: 4 week old culture.
Assay [5] concerns M. tuberculosis H37Ra. The note with it: 7-month-old culture. This is another data set of the same source.
Assay [6] deals with M. tuberculosis H37Ra. Put plainly: Growth of small inocula of fresh 4-week-old culture with phosphatidylserine. The conditions noted are these: 5 μg/ml in Sauton's medium, 20 days. The procedure: It is well known that to initiate growth of M. tuberculosis in liquid culture a large inoculum is required (Dubos and Davis, 1946). In a separate experiment involving a fresh 4-week-old M. tuberculosis H37Ra culture, the culture was serially diluted into Sauton's medium (1 ml) alone or into medium containing 5 μg/ml phosphatidylserine at 10^−2, 10^−3, 10^−4, 10^−5, 10^−6, 10^−7 dilutions. The cultures were incubated at 37° C. for 20 days when the visible growth was assessed and the cultures were plated on 7H11 plates, which were incubated at 37° C. for 3 weeks. Phosphatidyl-L-serine allowed small inocula (10^−7 dilution) to form visible growth and CFU on plates, whereas the control culture grew only at 10^−5 dilution.

Where two headings read alike, the source gives them in different places.

With `CCCCCCCC/C=C\CCCCCCCC(=O)OC[C@H](COP(=O)(O)OC[C@H](N)C(=O)O)OC(=O)CCCCCCC/C=C\CCCCCCCC` [dioleoyl phosphatidyl-L-serine], the CFU/ml in the assay on M. tuberculosis H37Ra [1] was 2×10^6 CFU/ml.
For “NH2-LNATDPGAAAQFNASPVAQSYLRN-OH (H-LNATDPGAAAQFNASPVAQSYLRN-OH; listed as Mycobacterium tuberculosis) [Peptide P2, residues 48-71]”, the “FDA-EB viability staining (% of viable green cells)” value is 1% with M. tuberculosis H37Ra [2] (day 0), 2% in the assay on M. tuberculosis H37Ra [2] (day 5) and 27.5% in the assay on M. tuberculosis H37Ra [2] (day 10). For the same molecule, the “MTT data (OD readings at 570 nm)” value is 0.2609 OD in the assay on M. tuberculosis H37Ra [3] (day 0), 0.6269 OD with M. tuberculosis H37Ra [3] (day 5) and 1.1567 OD in the assay with M. tuberculosis H37Ra [3] (day 10). Further, the CFU values is 225000 mL⁻¹ in the assay with M. tuberculosis H37Ra [4] (day 3), 500000 mL⁻¹ in the assay on M. tuberculosis H37Ra [4] (day 5), 1.5e+07 mL⁻¹ in the assay on M. tuberculosis H37Ra [4] (day 8) and 7.5e+07 mL⁻¹ in the assay with M. tuberculosis H37Ra [4] (day 11). Moreover, the CFU data in the assay on M. tuberculosis H37Ra [5] (day 5) is recorded as 100 × 10^5 CFU/ml; with M. tuberculosis H37Ra [5] (day 10), 200 × 10^5 CFU/ml.
Turning to “phosphatidylglycerol-oleoyl-palmitoyl [reference compound]”, the “resuscitation and growth enhancing activity” value in the assay with M. tuberculosis H37Ra [1] (compared with phosphatidylserine) was “did not have significant activity”.
Turning to “NH2-LRNFLAAPPPQRAAMAAQLQAV-OH (H-LRNFLAAPPPQRAAMAAQLQAV-OH; listed as Mycobacterium tuberculosis) [Peptide P3, residues 69-90]”, the “FDA-EB viability staining (% of viable green cells)” value in the assay on M. tuberculosis H37Ra [2] (day 0) is 2%; in the assay with M. tuberculosis H37Ra [2] (day 5), 4.5%; in the assay on M. tuberculosis H37Ra [2] (day 10) it was 42.5%. The “MTT data (OD readings at 570 nm)” value in the assay with M. tuberculosis H37Ra [3] (day 0) was 0.3147 OD; in the assay on M. tuberculosis H37Ra [3] (day 5), 0.6219 OD; with M. tuberculosis H37Ra [3] (day 10), 1.1917 OD. Also, the CFU values came out at 450000 mL⁻¹ in the assay with M. tuberculosis H37Ra [4] (day 3), 4.5e+07 mL⁻¹ in the assay with M. tuberculosis H37Ra [4] (day 5), 1.5e+08 mL⁻¹ in the assay with M. tuberculosis H37Ra [4] (day 8) and 1.5e+08 mL⁻¹ in the assay on M. tuberculosis H37Ra [4] (day 11). For the same molecule, the CFU data is 40 × 10^5 CFU/ml in the assay on M. tuberculosis H37Ra [5] (day 5) and 800 × 10^5 CFU/ml in the assay on M. tuberculosis H37Ra [5] (day 10).
Turning to phosphatidyl-L-serine, the “small inocula (dilution) forming visible growth and CFU on plates” value in the assay on M. tuberculosis H37Ra [6] is 10^−7. The CFU/ml in the assay with M. tuberculosis H37Ra [1] is on record as 1.2×10^7 CFU/ml.
“NH2-AQLQAVPGAAQYIGLVESVAGSCNNY-OH (H-AQLQAVPGAAQYIGLVESVAGSCNNY-OH; listed as Mycobacterium tuberculosis) [Peptide P4, residues 85-110]”: the entries for the “FDA-EB viability staining (% of viable green cells)” value in the assay with M. tuberculosis H37Ra [2] (day 0), in the assay with M. tuberculosis H37Ra [2] (day 5) and in the assay on M. tuberculosis H37Ra [2] (day 10) were 1%, 11.5% and 50%, respectively. For the same molecule, the results for the “MTT data (OD readings at 570 nm)” value in the assay with M. tuberculosis H37Ra [3] (day 0), in the assay with M. tuberculosis H37Ra [3] (day 5) and in the assay with M. tuberculosis H37Ra [3] (day 10) were 0.2248 OD, 0.6287 OD and 1.4131 OD, respectively. In addition, the CFU values is 2e+06 mL⁻¹ with M. tuberculosis H37Ra [4] (day 3), 3.25e+06 mL⁻¹ with M. tuberculosis H37Ra [4] (day 5), 7.5e+07 mL⁻¹ in the assay on M. tuberculosis H37Ra [4] (day 8) and 2e+08 mL⁻¹ in the assay on M. tuberculosis H37Ra [4] (day 11). For the same molecule, the CFU data is listed as 50 × 10^5 CFU/ml with M. tuberculosis H37Ra [5] (day 5) and 900 × 10^5 CFU/ml with M. tuberculosis H37Ra [5] (day 10).

The values above are taken from US6664096B2, “Methods for improved diagnosis and treatment of mycobacterial infections” (priority 2000, dated 2003).
